# Tests used:
# [1] = system: PC-12 cells expressing mutant G93A SOD1; assay: Mutant SOD1-induced cytotoxicity protection assay; format: cell-based; settings: result in words
# primary cortical neurons = assay: Primary cortical neuron protection assay; format: cell-based; settings: result in words
# [2] = system: PC-12 cells expressing mutant G93A SOD1; settings: result in words; previously prepared compound; cited from earlier work
SMILES,protection against mutant SOD1 induced toxicity in PC-12 cells [1],activity in cortical neurons (primary cortical neurons),inhibition of protein aggregation in PC-12 cells expressing mutant G93A SOD1 [2]
O=C1CC(=O)CC([C@@H]2C[C@H]2c2cc(C(F)(F)F)cc(C(F)(F)F)c2)C1 [2b],protective,active,
C[C@H](Oc1cc(C(F)(F)F)cc(C(F)(F)F)c1)C1CC(=O)CC(=O)C1 [1b],protective,active,
O=C1CC(=O)CC(c2cc(C(F)(F)F)cc(C(F)(F)F)c2)C1 [compound 13],,,potent inhibitor
